The assay addresses T1, PA2G4 protein (Homo sapiens, UniProt Q9UQ80).
T1 sequence (Q9UQ80 1-394): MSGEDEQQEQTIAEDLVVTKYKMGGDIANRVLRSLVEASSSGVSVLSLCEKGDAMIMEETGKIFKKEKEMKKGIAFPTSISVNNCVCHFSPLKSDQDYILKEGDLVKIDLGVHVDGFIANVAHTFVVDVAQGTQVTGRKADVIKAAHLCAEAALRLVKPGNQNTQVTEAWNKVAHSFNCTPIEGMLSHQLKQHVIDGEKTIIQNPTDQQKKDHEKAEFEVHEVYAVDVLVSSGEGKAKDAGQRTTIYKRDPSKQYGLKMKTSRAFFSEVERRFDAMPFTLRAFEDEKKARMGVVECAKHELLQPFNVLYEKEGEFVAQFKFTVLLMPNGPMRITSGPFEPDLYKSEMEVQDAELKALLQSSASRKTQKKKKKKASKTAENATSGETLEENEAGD
The assay is described as follows: Surface plasmon resonance binding to recombinant PA2G4. Conditions: SPR. Details: PA2G4 protein construct was ordered from GenScript (Piscataway, NJ, USA) and cloned into a pET22b vector; host or cells: BL21 (DE3) E. coli. Here is the method: PA2G4 protein construct was ordered from GenScript (Piscataway, NJ, USA) and cloned into a pET22b vector. The construct was expressed in BL21 (DE3) E. coli, which was transformed by adding 2 μL of DNA, as per the Addgene Bacterial Transformation Protocol (Addgene, Cambridge, MA, USA). A total of 250 μL of transformed cells were grown in Luria-Bertani (LB) agar, containing 100 μg/mL of ampicillin, overnight at 37 °C. Starting cultures were created by inoculating 100 mL of LB with several bacterial culture colonies, followed by an overnight shaking incubation at 125 rpm and 37 °C. The overnight culture was added (10 mL/L) to 2 L flasks of LB and incubated at 125 rpm and 37 °C until log phase growth was reached (OD600 = 0.6). Following incubation, the cell line was centrifuged at 4200 rpm for 30 min in 1 L bottles. The cell pellet was then resuspended in 25 mL of phosphate-buffered saline (PBS) and centrifuged again at 4200 rpm for 30 min.
Cell pellets were resuspended in 25 mL of Ni-IMAC buffer A (100 mM Tris (pH 8.0), 0.5 M NaCl, 1 mM TCEP), filtered through 22–25 μm Miracloth, and placed on ice. Filtered cells were lysed using the EmulsiFlex-C5 High-Pressure homogenizer (Avestin, Ottawa, ON, Canada), followed by high-speed centrifugation at 18,000 rpm for 20 min. The supernatant, containing the soluble cell lysate, was loaded onto a 5 mL His-Trap column (GE Healthcare Life Sciences, Buckinghamshire, UK) equilibrated in Ni-IMAC buffer A. An incremental gradient of Ni-IMAC buffer B (100 mM Tris pH 8.0, 0.5 M NaCl, 1 mM TCEP, and 1 M imidazole) was introduced. Eluted fractions were analysed by SDS-PAGE and pooled accordingly. Each protein sample was then loaded onto a HiPrep 26/10 Desalting column (GE Healthcare Life Sciences, Buckinghamshire, UK) and equilibrated into anion exchange buffer A (100 mM Tris pH 8.0, 50 mM NaCl, 1 mM TCEP). Samples were loaded onto the column and eluted fractions were analysed by SDS-PAGE and pooled accordingly.
Protein was loaded onto a 5 mL HiTrap Q (Sephrose-Q) anion exchange column (GE Healthcare Life Sciences, Buckinghamshire, UK) and equilibrated in anion exchange buffer A. Samples were loaded, eluted in the flow-through, and analysed using SDS-PAGE. Samples were pooled and concentrated using 10 kDa MWCO Ultra-4 centrifugal filters (Merck, Macquarie Park, NSW, Australia) and intermittent centrifugation at 4000 rpm. Protein samples were then purified using Size Exclusion Chromatography (SEC). Each sample was concentrated to […] using MWCO Ultra-4 centrifugal filters, then loaded onto a Superdex 75 16/60 SEC column (GE Healthcare Life Sciences, Buckinghamshire, UK) and equilibrated in SEC buffer (25 mM Hepes pH 7.7, 100 mM NaCl, 1 mM TCEP). Samples were eluted, analysed by SDS-PAGE, and concentrated to 10 mg/mL using 10 kDa MWCO Ultra-4 centrifugal filters, with intermitted centrifugation at 4000 rpm.
Recombinant PA2G4 was buffer exchanged into PBS buffer using an overnight dialysis at 4 °C. Protein was concentrated to 0.5 mg/mL and incubated for 3 h on ice with a 20:1 molar excess of EZ-Link Sulfo-NHS-LC-Biotin (Thermo Scientific, Melbourne, VIC, Australia). Biotinylated protein samples were isolated from excess biotin using a Superdex 200 10/300 SEC column (GE Healthcare Life Sciences, Buckinghamshire, UK). All SPR experiments were performed on a Biacore T200 instrument (GE Healthcare Life Sciences, Uppsala, Sweden), at 25 °C, in the presence of HEPES Buffered Saline (HBS) (20 mM […] (pH 7.5) 137 mM NaCl, 2.7 mM KCl, and 0.05% Tween 20). Streptavidin was coupled to a CM5 chip (GE Healthcare Life Sciences, Buckinghamshire, UK) using amine coupling. Biotinylated protein samples were then capture-coupled to the streptavidin, with flow cell 1 blocked as a reference.
Compounds were dissolved in 100% DMSO and diluted to 10 mM. […]
(Surface plasmon resonance follows binding to a sensor surface in real time, without labels.)

Setting [1] is: Biacore T200, 25 °C, biotinylated PA2G4.

What is called Kd is the concentration at which binding is half-saturated.

With `Cc1cccc(Oc2cc(N3CCC(C(=O)NCc4cccc(C(F)(F)F)c4)CC3)ncn2)c1C` [#3567], the Kd is 14.9 µM under setting [1] and 14.9 µM (recombinant PA2G4).
On to `Cc1cccc(Oc2cc(N3CCC(C(=O)NCc4cccc(Br)c4)CC3)ncn2)c1C` [#5333], for which the Kd by setting is: under setting [1], 10.8 µM; (recombinant PA2G4) 10.8 µM.
For the compound `Cc1cccc(Oc2cc(N3CCC(C(=O)N[C@@H](C)CCc4ccccc4)CC3)ncn2)c1C` [#5338], the Kd under setting [1] was 13.5 µM and the dissociation constant Kd (recombinant PA2G4) stood at 13.5 µM.

The values are drawn from paper PMC10046377, “Inhibitors of the Oncogenic PA2G4-MYCN Protein-Protein Interface” (Cancers, 2023).
